The numbers were not newly measured in US20070021506A1, “Stress relieving composition” (Ajinomoto Co., Inc., priority 2004, published 2007), which cites them from elsewhere.

Like-named read-outs stand apart in the source and are kept apart here.

The subject of one data set is benzodiazepine receptor. To be noted: Non-patent document 9.
Another data set concerns the target T1, 5HT-4 receptor (Rattus norvegicus, UniProt Q62758).
T1 construct: suppressed anxiety disorder of rats induced by a 5HT-4 receptor agonist; from tissue; host or cells: living rats (whole animal; oral L-lysine, s.c. agonist)

Another data set has as its target T2, 5-HT4 receptor (Cavia porcellus, UniProt O70528).
T2 construct: from tissue; host or cells: guinea pig ileum
To be noted: in vitro.

T2 sequence (O70528 whole entry): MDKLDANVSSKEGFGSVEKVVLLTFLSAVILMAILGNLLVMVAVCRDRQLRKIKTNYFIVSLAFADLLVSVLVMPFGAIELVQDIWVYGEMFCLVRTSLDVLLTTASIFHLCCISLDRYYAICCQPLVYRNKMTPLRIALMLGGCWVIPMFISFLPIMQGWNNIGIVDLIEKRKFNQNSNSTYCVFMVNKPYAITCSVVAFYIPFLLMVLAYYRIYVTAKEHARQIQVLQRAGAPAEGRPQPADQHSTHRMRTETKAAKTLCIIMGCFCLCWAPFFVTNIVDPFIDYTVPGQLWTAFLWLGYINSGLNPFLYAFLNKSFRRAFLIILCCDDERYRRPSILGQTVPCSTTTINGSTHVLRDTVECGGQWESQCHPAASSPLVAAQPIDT
T1 sequence (Q62758 whole entry): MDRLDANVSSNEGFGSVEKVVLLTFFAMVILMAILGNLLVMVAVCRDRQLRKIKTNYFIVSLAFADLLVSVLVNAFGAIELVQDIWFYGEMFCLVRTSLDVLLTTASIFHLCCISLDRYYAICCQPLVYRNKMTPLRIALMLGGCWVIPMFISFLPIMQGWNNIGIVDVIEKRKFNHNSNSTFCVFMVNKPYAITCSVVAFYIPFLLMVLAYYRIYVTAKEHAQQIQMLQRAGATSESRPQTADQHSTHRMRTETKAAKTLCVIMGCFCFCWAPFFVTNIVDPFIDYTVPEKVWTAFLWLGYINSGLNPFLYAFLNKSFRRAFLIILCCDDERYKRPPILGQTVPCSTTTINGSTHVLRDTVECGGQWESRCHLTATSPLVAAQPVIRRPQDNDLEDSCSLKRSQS

With `NCCCC[C@H](N)C(=O)O` [L-lysine], the “action at benzodiazepine receptor” value with benzodiazepine receptor was “benzodiazepine receptor agonist”. Besides, the “anxiety disorder of rats induced by a 5HT-4 receptor agonist” value at 5HT-4 receptor (1 g/kg, p.o., agonist 3.0 mmol/l s.c.) was “significantly suppressed”. Besides, the “action at 5HT-4 receptor” value on 5HT-4 receptor (rat, in vivo) was “partially serves as a 5HT-4 receptor antagonist”. Further, the “5-HT-induced contraction of the guinea pig ileum” value was “blocked” at 5-HT4 receptor (0.07 mmol/dl, P<0.05) and “blocked” on 5-HT4 receptor (0.7 mmol/dl, P<0.01).
Take `N[C@@H](Cc1c[nH]c2ccccc12)C(=O)O` [Trp, tryptophan]: the mood enhancement effect result (clinical study conducted recently (Non-patent document 3)) is “could not be fully supported”. Further, the stress-induced mood result (comparative clinical study, taken alone or together with carbohydrates) is “relieved”.
As for `N[C@@H](Cc1ccc(O)cc1)C(=O)O` [Tyr, tyrosine], for the setting “normal subjects exposed to mental stress”, the mood result is listed as “improved the mood significantly”. Moreover, the “effect in terms of mood criterion” value (patients with depression) is reported as “a significant effect in terms of mood criterion was not observed”.
